Source: patent publication US20250120397A1, “PEST CONTROL METHOD” (National Chung Hsing University, priority 2023, published 2025)

Assays:
Type in all cases: in vivo
[1] = tested on: Anoplolepis longipes (long-legged ant); assay: 24-hour fumigation in sealed 1-L container, fatality rate
Excerpt: (§1) Sitophilus oryzae (rice weevil), Tetranychus urticae (two-spotted spider mite), Lasioderma serricorne (cigarette beetle), Blattella germanica (German cockroach), Anoplolepis longipes (long-legged ant), and Solenopsis invicta (red imported fire ant) were used as the test objects of this experiment and were each put into several 1-L containers. A carrier containing an isododecane (or 2,2,4,6,6-pentamethylheptane to be exact) at each of a plurality of predetermined concentrations (i.e., 2.5, 5, 10, 20, 30, and 40 mg) was then put into one of the 1-L containers of each test object, before the containers were sealed to start a 24-hour fumigation process. After that, the containers were aerated, and the numbers of deaths of each kind of pests were counted.
(§2) Sitophilus oryzae, Tetranychus urticae, Lasioderma serricorne, Blattella germanica, Anoplolepis longipes, and Solenopsis invicta were each put into several 1-L containers. A carrier containing each of n-dodecane, n-decane, 2-methylnonane (an isodecane), and 2,2,4,6,6-pentamethylheptane (an isododecane) at a concentration of 30 mg was then put into one of the 1-L containers of each test object, before the containers were sealed to start a 24-hour fumigation process. After that, the containers were aerated, and the numbers of deaths of each kind of pests were counted.

[2] = tested on: Blattella germanica (German cockroach); assay: as above
Excerpt: as §1, §2

[3] = tested on: Lasioderma serricorne (cigarette beetle); assay: as above
Excerpt: as §1, §2

[4] = tested on: Sitophilus oryzae (rice weevil); assay: as above
Excerpt: as §1, §2

[5] = tested on: Solenopsis invicta (red imported fire ant); assay: as above
Excerpt: as §1, §2

[6] = tested on: Tetranychus urticae (two-spotted spider mite); assay: as above
Excerpt: as §1, §2

mosquito larvae = assay: Mosquito larvae killing in 100 mL deionized water, 24 hours, fatality rate; conditions: uncovered
Method: Artificially raised non-pathogenic mosquito larvae were divided into a plurality of groups each including 30 larvae. Each group of larvae was put into a 1-L container together with 100 mL of deionized water. Then, a reagent containing a spreading agent for agricultural use as well as an isododecane and an isohexadecane in a ratio of 4:1 was added into the deionized water in each container at one of a plurality of predetermined doses and thoroughly mixed. The containers were left uncovered. After 24 hours, the numbers of deaths of the mosquito larvae were counted.

[7] = Table 2: compound at 30 mg in 1-L container

## CC(CC(C)(C)C)CC(C)(C)C [2,2,4,6,6-pentamethylheptane]
[1]; [7]
  Fatality rate (%) Anoplolepis longipes: 100%
[1]; dose 2.5 mg in 1-L container
  Fatality rate (%) Anoplolepis longipes: 8%
[1]; dose 5 mg in 1-L container
  Fatality rate (%) Anoplolepis longipes: 14%
[1]; dose 10 mg in 1-L container
  Fatality rate (%) Anoplolepis longipes: 32%
[1]; dose 20 mg in 1-L container
  Fatality rate (%) Anoplolepis longipes: 80%
[1]; dose 30 mg in 1-L container
  Fatality rate (%) Anoplolepis longipes: 100%
[1]; dose 40 mg in 1-L container
  Fatality rate (%) Anoplolepis longipes: 100%
[2]; [7]
  Fatality rate (%) Blattella germanica: 100%
[2]; dose 2.5 mg in 1-L container
  Fatality rate (%) Blattella germanica: 7%
[2]; dose 5 mg in 1-L container
  Fatality rate (%) Blattella germanica: 18%
[2]; dose 10 mg in 1-L container
  Fatality rate (%) Blattella germanica: 38%
[2]; dose 20 mg in 1-L container
  Fatality rate (%) Blattella germanica: 88.89%
[2]; dose 30 mg in 1-L container
  Fatality rate (%) Blattella germanica: 100%
[2]; dose 40 mg in 1-L container
  Fatality rate (%) Blattella germanica: 100%
[3]; [7]
  Fatality rate (%) Lasioderma serricorne: 100%
[3]; dose 2.5 mg in 1-L container
  Fatality rate (%) Lasioderma serricorne: 5%
[3]; dose 5 mg in 1-L container
  Fatality rate (%) Lasioderma serricorne: 18%
[3]; dose 10 mg in 1-L container
  Fatality rate (%) Lasioderma serricorne: 25%
[3]; dose 20 mg in 1-L container
  Fatality rate (%) Lasioderma serricorne: 42.11%
[3]; dose 30 mg in 1-L container
  Fatality rate (%) Lasioderma serricorne: 100%
[3]; dose 40 mg in 1-L container
  Fatality rate (%) Lasioderma serricorne: 100%
[4]; [7]
  Fatality rate (%) Sitophilus oryzae: 100%
[4]; dose 2.5 mg in 1-L container
  Fatality rate (%) Sitophilus oryzae: 0%
[4]; dose 5 mg in 1-L container
  Fatality rate (%) Sitophilus oryzae: 7%
[4]; dose 10 mg in 1-L container
  Fatality rate (%) Sitophilus oryzae: 22%
[4]; dose 20 mg in 1-L container
  Fatality rate (%) Sitophilus oryzae: 30%
[4]; dose 30 mg in 1-L container
  Fatality rate (%) Sitophilus oryzae: 100%
[4]; dose 40 mg in 1-L container
  Fatality rate (%) Sitophilus oryzae: 100%
[5]; [7]
  Fatality rate (%) Solenopsis invicta: 100%
[5]; dose 2.5 mg in 1-L container
  Fatality rate (%) Solenopsis invicta: 32%
[5]; dose 5 mg in 1-L container
  Fatality rate (%) Solenopsis invicta: 55%
[5]; dose 10 mg in 1-L container
  Fatality rate (%) Solenopsis invicta: 100%
[5]; dose 20 mg in 1-L container
  Fatality rate (%) Solenopsis invicta: 100%
[5]; dose 30 mg in 1-L container
  Fatality rate (%) Solenopsis invicta: 100%
[5]; dose 40 mg in 1-L container
  Fatality rate (%) Solenopsis invicta: 100%
[6]; [7]
  Fatality rate (%) Tetranychus urticae: 100%
[6]; dose 2.5 mg in 1-L container
  Fatality rate (%) Tetranychus urticae: 45%
[6]; dose 5 mg in 1-L container
  Fatality rate (%) Tetranychus urticae: 72%
[6]; dose 10 mg in 1-L container
  Fatality rate (%) Tetranychus urticae: 100%
[6]; dose 20 mg in 1-L container
  Fatality rate (%) Tetranychus urticae: 100%
[6]; dose 30 mg in 1-L container
  Fatality rate (%) Tetranychus urticae: 100%
[6]; dose 40 mg in 1-L container
  Fatality rate (%) Tetranychus urticae: 100%
Mosquito larvae; dose 2.5 mg in 100 mL deionized water
  Fatality rate (%) of mosquito larvae: 33%
Mosquito larvae; dose 5 mg in 100 mL deionized water
  Fatality rate (%) of mosquito larvae: 50%
Mosquito larvae; dose 10 mg in 100 mL deionized water
  Fatality rate (%) of mosquito larvae: 80%
Mosquito larvae; dose 20 mg in 100 mL deionized water
  Fatality rate (%) of mosquito larvae: 100%
Mosquito larvae; dose 40 mg in 100 mL deionized water
  Fatality rate (%) of mosquito larvae: 100%

## CCCCCCCC(C)C [2-methylnonane]
[1]; [7]
  Fatality rate (%) Anoplolepis longipes: 90%
[2]; [7]
  Fatality rate (%) Blattella germanica: 100%
[3]; [7]
  Fatality rate (%) Lasioderma serricorne: 100%
[4]; [7]
  Fatality rate (%) Sitophilus oryzae: 100%
[5]; [7]
  Fatality rate (%) Solenopsis invicta: 100%
[6]; [7]
  Fatality rate (%) Tetranychus urticae: 100%

## CCCCCCCCCC [n-decane]
[1]; [7]
  Fatality rate (%) Anoplolepis longipes: 75%
[2]; [7]
  Fatality rate (%) Blattella germanica: 100%
[3]; [7]
  Fatality rate (%) Lasioderma serricorne: 100%
[4]; [7]
  Fatality rate (%) Sitophilus oryzae: 100%
[5]; [7]
  Fatality rate (%) Solenopsis invicta: 100%
[6]; [7]
  Fatality rate (%) Tetranychus urticae: 100%

## CCCCCCCCCCCC [n-dodecane]
[1]; [7]
  Fatality rate (%) Anoplolepis longipes: 25%
[2]; [7]
  Fatality rate (%) Blattella germanica: 22.22%
[3]; [7]
  Fatality rate (%) Lasioderma serricorne: 100%
[4]; [7]
  Fatality rate (%) Sitophilus oryzae: 50%
[5]; [7]
  Fatality rate (%) Solenopsis invicta: 5%
[6]; [7]
  Fatality rate (%) Tetranychus urticae: 95%
